Tests used:
reactive oxygen species = experiment: DCFH-DA oxidative stress detection; type: cell-based; details: DCFH-DA assay, Figure S8
Procedure: 2.10 Oxidative stress detection
Cells were cultured in 96-well plates and washed with prewarmed HBSS buffer. A solution of 2',7'-dichlorofluorescein-diacetate (DCFH-DA) (100 μM) was added to the cells, followed by 30 minutes of incubation. […]
dissolved in HBSS buffer for an additional 2 hours. Control cells received vehicle (DMSO), or […]

[1] = system: chymotrypsin-like activity of the 26S proteasome; experiment: Proteasome activity assay in HEK293 cell lysates; type: cell-based, human; details: 7.5 μM, 16 h; for Proteasome chymotrypsin-like activity, geometric mean (treatment): HEK293 lysates, 37 °C, DMSO control = 1; for Proteasome chymotrypsin-like activity, geometric mean of ratios: treatment/control, ratio paired t test, HEK293
Procedure: Building on previous findings, we investigated how selected RUN compounds influence proteasomal function itself. Specifically, we examined the chymotrypsin-like activity of the 26S proteasome following a 16 hour treatment with 7.5 μM RUN compounds in the HEK293 cell line. […] In addition, two other cell lines, MCF7 and SH-SY5Y, were measured (see the SI, Fig. S6).
Fig. 3 (A) HEK293 cells were treated with RUN compounds at a concentration of 7.5 μM for 16 hours. DMSO was used as a vehicle control. Proteasome chymotrypsin-like activity was measured in cell lysates at 37 °C. Data came from three biological replicates (n = 3). Statistical analysis was done using ratio paired t-tests corrected for multiple comparisons with Holm–Šídák's method (α = 0.05). *p < 0.05. Detailed results of the analysis are shown in SI Table S7. (B) RUN-89 protects against polyQ-mediated toxicity in an NFE2L1-dependent manner. HCT116 parental cells (WT) and two independent DDI2 knockout clones (KO 04 and KO 11), in which NFE2L1 activation is impaired, were transiently transfected with plasmids encoding non-aggregating EGFP-HttQ23 or aggregation-prone EGFP-HttQ74. Cells were treated with 1 or 3 μM RUN-89 for 48 hours, and viability was measured using the alamarBlue assay. […] Data are shown as the Geomean ± GeoSD from four independent biological replicates (n = 4). Statistical analysis was performed on log2-transformed values using two-way repeated-measures ANOVA followed by Šídak's multiple comparison test. (C right) Parental SH-SY5Y cells (without α-synuclein expression) were treated in the same manner. (C left) The protective effect of RUN compounds was assessed by rotenone-induced α-synuclein proteotoxicity in SH-SY5Y cells, which mimics the PD-like phenotype. Cells were pre-treated with increasing concentrations of RUN compounds (0.312, 0.625, 1.25, and 2.5 μM) for 4 hours and then rotenone (1.125 μM) treatment was done for 24 hours. […]
2.7 Proteasome activity assay
The corresponding cell lines (HEK293, MCF7, or SH-SY5Y) were seeded into 6-well plates and allowed to adhere overnight under standard culture conditions. On the following day, HEK293 cells were treated with 7.5 µM RUN compounds, whereas MCF7 and SH-SY5Y cells were treated with 5 µM RUN compounds, for 16 hours each. After treatment, cells were harvested, resuspended in lysis buffer (50 mM HEPES, pH 7.5; 5 mM EDTA; 150 mM NaCl; 2 mM ATP; 1% Triton), and centrifuged at 15,000 rpm for 15 minutes at 4 °C. The resulting lysates (25 µg total protein) were incubated with 200 µM of the fluorogenic substrate Suc-Leu-Leu-Val-Tyr-AMC (Bachem, I1395) in assay buffer (50 mM Tris, pH 8.0; 10 mM MgCl₂; 1 mM ATP; 1 mM DTT) at 37 °C. Free AMC release was detected by measuring fluorescence at 360/460 nm. […]
HEK293 cells were seeded in 6-well plates and incubated for 24 hours before being transfected with a plasmid containing the CMV-XBP-Gluc reporter using Lipofectamine 2000.(4) After 6 hours, the transfected cells were subsequently transferred to 384-well plates, stabilized overnight, and treated with the proteasome inhibitor and ER stress inducer MG132 and/or various concentrations of RUN compounds (1, 5, and 10 µM) or vehicle (DMSO) for 16 hours. Luciferase activity was normalized to cell viability, which was assessed using the alamarBlue assay. The results are expressed as the fold change compared with the DMSO control, with the experiment conducted in biological triplicate. […]

SMILES | Geometric mean, Treatment (Control = 1) (reactive oxygen species; 5 μM) | Geometric mean, Treatment (Control = 1) (reactive oxygen species; 25 μM) | Proteasome chymotrypsin-like activity, geometric mean (treatment) [1] | Proteasome chymotrypsin-like activity, geometric mean of ratios [1]
COc1ccc(/C=C2\CC(N)C/C(=C\c3ccc(OC)c(OC)c3)C2=O)cc1OC (centres unmarked) [RUN-81] | 0.96 | 0.99 | 1.21 | 1.21
COc1ccc(/C=C2\CC(NC(=O)C3CCCC3)C/C(=C\c3ccc(OC)c(OC)c3)C2=O)cc1OC (centres unmarked) [RUN-89] | 1.09 | 1.13 | – | 1.36
COc1ccc(/C=C2\CC(NC(=O)c3ccccn3)C/C(=C\c3ccc(OC)c(OC)c3)C2=O)cc1OC (centres unmarked) [RUN-94] | 0.97 | 1.00 | 1.21 | 1.21
